The target of assay [1] is IRAK4 enzyme (Homo sapiens (Human), UniProt Q9NWZ3). As to the kind of experiment: IRAK4 Biochemical Assay (TR-FRET, STK1 KinEASE). In general terms: TR-FRET usually uses a lanthanide donor and a delayed reading to cut background.
For assay [2], the system named is TNFα. As to the kind of experiment: IRAK4 Monocyte TNFα Cell Based Assay. Also on record: species or system human. To be noted: human monocytes, second part of Table 2 (compounds 33-343), unit inferred, read-out: EC50MONO TNF HTRF.
[3] abbreviates: second part of Table 2 (compounds 33-343), unit inferred, read-out: IC50 IRAK4-HTBS.

Read-outs that look alike come from different tables or passages of the source.

IRAK4 enzyme, sequence (Q9NWZ3 whole entry): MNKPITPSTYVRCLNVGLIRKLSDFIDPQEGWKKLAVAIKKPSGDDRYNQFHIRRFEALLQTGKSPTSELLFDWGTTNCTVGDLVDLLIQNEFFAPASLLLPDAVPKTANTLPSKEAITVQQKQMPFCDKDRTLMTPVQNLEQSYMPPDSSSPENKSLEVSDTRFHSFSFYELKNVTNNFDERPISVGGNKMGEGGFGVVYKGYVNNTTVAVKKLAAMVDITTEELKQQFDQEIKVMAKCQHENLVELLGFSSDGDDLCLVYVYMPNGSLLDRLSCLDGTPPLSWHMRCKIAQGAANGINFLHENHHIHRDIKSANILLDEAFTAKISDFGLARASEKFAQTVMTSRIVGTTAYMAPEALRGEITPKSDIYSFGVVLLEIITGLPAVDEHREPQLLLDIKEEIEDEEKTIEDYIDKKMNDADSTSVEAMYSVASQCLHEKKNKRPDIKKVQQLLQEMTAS

A word on the IC50: it is the concentration that inhibits the measured activity by half. Take `CC(C)Nc1cc(-c2ccc3cc(C#N)cnn23)ncc1-c1nnc(C2CCN(C3COC3)CC2)s1` [Example 138, 7-(4-(isopropylamino)-5-(5-(1-(oxetan-3-yl)piperidin-4-yl)-1,3,4-thiadiazol-2-yl)pyridin-2-yl)pyrrolo[1,2-b]pyridazine-3-carbonitrile]: the concentration for half-maximal inhibition (IC50) in assay [1] worked out at 0.61 nM. Besides, the EC50 in assay [2] (Homo sapiens, Monocyte) stood at 15 nM.
Taken in the same sequence, the figures for `CC(C)Nc1cc(-c2ccc3cc(C#N)cnn23)ncc1-c1nnc(N2CC3CCC(C2)C3(O)C(F)(F)F)s1` (centres unmarked) [Example 159, 7-(5-(5-(8-hydroxy-8-(trifluoromethyl)-3-azabicyclo[3.2.1]octan-3-yl)-1,3,4-thiadiazol-2-yl)-4-(isopropylamino)pyridin-2-yl)pyrrolo[1,2-b]pyridazine-3-carbonitrile] were 6.38 nM and 25.7 nM.
Take `CC(C)Nc1cc(-c2ccc3cc(C#N)cnn23)ncc1-c1nnc(N2CC3(CCNC3=O)C2)s1` [Example 164, 7-(4-(isopropylamino)-5-(5-(5-oxo-2,6-diazaspiro[3.4]octan-2-yl)-1,3,4-thiadiazol-2-yl)pyridin-2-yl)pyrrolo[1,2-b]pyridazine-3-carbonitrile]: 0.55 nM corresponded to half-maximal inhibition in assay [1] (IC50). In addition, in assay [2] (Homo sapiens, Monocyte), the EC50 is 17.5 nM.
`CC(C)Nc1cc(-c2ccc3cc(C#N)cnn23)ncc1-c1nnc(N2CCC(O)(C(F)(F)F)CC2)s1` [Example 172, 7-(5-(5-(4-hydroxy-4-(trifluoromethyl)piperidin-1-yl)-1,3,4-thiadiazol-2-yl)-4-(isopropylamino)pyridin-2-yl)pyrrolo[1,2-b]pyridazine-3-carbonitrile] gave a concentration for half-maximal inhibition (IC50) in assay [1] of 2.99 nM. Also, the EC50 in assay [2] (Homo sapiens, Monocyte) came out at 34.4 nM.
As to `C[C@H](C#N)Nc1cc(-c2ccc3cc(C#N)cnn23)ncc1-c1nnc(N2CCC(C)(O)CC2)s1` [Example 180, (R)-7-(4-((1-cyanoethyl)amino)-5-(5-(4-hydroxy-4-methylpiperidin-1-yl)-1,3,4-thiadiazol-2-yl)pyridin-2-yl)pyrrolo[1,2-b]pyridazine-3-carbonitrile], 0.4 nM corresponded to half-maximal inhibition in assay [1] (IC50). The EC50 in assay [2] (Homo sapiens, Monocyte) came to 6.8 nM.
Taken in the same sequence, the figures for `CC1(O)CCN(c2nnc(-c3cnc(-c4ccc5cc(C#N)cnn45)cc3NC3(C)COC3)s2)CC1` [Example 181, 7-(5-(5-(4-hydroxy-4-methylpiperidin-1-yl)-1,3,4-thiadiazol-2-yl)-4-((3-methyloxetan-3-yl)amino)pyridin-2-yl)pyrrolo[1,2-b]pyridazine-3-carbonitrile] were 0.36 nM and 18.4 nM.
In turn, `CC(C)Nc1cc(-c2ccc3cc(C#N)cnn23)ncc1-c1nnc(N2CC[C@@](C)(O)[C@@H](F)C2)s1` [Example 186, 7-(5-(5-((3S,4R)-3-fluoro-4-hydroxy-4-methylpiperidin-1-yl)-1,3,4-thiadiazol-2-yl)-4-(isopropylamino)pyridin-2-yl)pyrrolo[1,2-b]pyridazine-3-carbonitrile] showed an IC50 in assay [1] of 0.95 nM. In assay [2] (Homo sapiens, Monocyte), the EC50 was 8.4 nM.
Taken in the same sequence, the figures for `CC(C)Nc1cc(-c2ccc3cc(C#N)cnn23)ncc1-c1nnc(N2CCC(O)(CF)CC2)s1` [Example 189, 7-(5-(5-(4-(fluoromethyl)-4-hydroxypiperidin-1-yl)-1,3,4-thiadiazol-2-yl)-4-(isopropylamino)pyridin-2-yl)pyrrolo[1,2-b]pyridazine-3-carbonitrile] were 1.02 nM and 16.3 nM.
In assay [1], `CC(C)Nc1cc(-c2ccc3cc(C#N)cnn23)ncc1-c1nnc(C(=O)N2CC[C@@H](CO)C2)s1` [Example 216, (R)-7-(5-(5-(3-(hydroxymethyl)pyrrolidine-1-carbonyl)-1,3,4-thiadiazol-2-yl)-4-(isopropylamino)pyridin-2-yl)pyrrolo[1,2-b]pyridazine-3-carbonitrile] displayed an IC50 of 0.78 nM. In addition, the EC50 in assay [2] (Homo sapiens, Monocyte) is 18.1 nM.
As to `CC(=O)NC1CC2CC1CC2c1nnc(-c2cnc(-c3ccc4cc(C#N)cnn34)cc2NC(C)C)s1` (centres unmarked) [Example 285, N-(5-(5-(6-(3-cyanopyrrolo[1,2-b]pyridazin-7-yl)-4-(isopropylamino)pyridin-3-yl)-1,3,4-thiadiazol-2-yl)bicyclo[2.2.1]heptan-2-yl)acetamide], in assay [1], half-maximal inhibition (IC50) required 0.78 nM. Also, the EC50 in assay [2] (Homo sapiens, Monocyte) amounted to 68 nM.
Compound `CC(C)Nc1cc(-c2ccc3cc(C#N)cnn23)ncc1-c1nnc(N2CCC(C)(O)CC2)s1` [Example 287, 7-(5-(5-(4-hydroxy-4-methylpiperidin-1-yl)-1,3,4-thiadiazol-2-yl)-4-(isopropylamino)pyridin-2-yl)pyrrolo[1,2-b]pyridazine-3-carbonitrile] displayed an IC50 in assay [1] of 0.86 nM. Also, in assay [2] (Homo sapiens, Monocyte), the EC50 came to 9.8 nM.
`CC(=O)N1C[C@@H]2C[C@H]1CN2c1nnc(-c2cnc(-c3ccc4cc(C#N)cnn34)cc2NC(C)C)s1` [Example 302, 7-(5-(5-((1S,4S)-5-acetyl-2,5-diazabicyclo[2.2.1]heptan-2-yl)-1,3,4-thiadiazol-2-yl)-4-(isopropylamino)pyridin-2-yl)pyrrolo[1,2-b]pyridazine-3-carbonitrile] gave a half-inhibitory concentration (IC50) in assay [1] of 0.59 nM. Further, the EC50 in assay [2] (Homo sapiens, Monocyte) was 5.3 nM.
`CC(C)Nc1cc(-c2ccc3cc(C#N)cnn23)ncc1-c1nnc(N2CCN(C3COC3)CC2)s1` [Example 304, 7-(4-(isopropylamino)-5-(5-(4-(oxetan-3-yl)piperazin-1-yl)-1,3,4-thiadiazol-2-yl)pyridin-2-yl)pyrrolo[1,2-b]pyridazine-3-carbonitrile]: the midpoint of inhibition in assay [1], the IC50, lay at 0.54 nM. For the same compound, the EC50 in assay [2] (Homo sapiens, Monocyte) amounted to 9.8 nM.
With “(S)-1-(5-(6-(3-cyanopyrrolo[1,2-b]pyridazin-7-yl)-4-(oxetan-3-ylamino)pyridin-3-yl)-1,3,4-thiadiazol-2-yl)-N-methylpyrrolidine-2-carboxamide [Compound 332]”, in assay [1] (setting [3]), the IC50 was determined as 1.61 nM. Besides, the EC50 in assay [2] was determined as 435 nM.
As for “N1-((1R,5S,8s)-3-(5-(6-(3-cyanopyrrolo[1,2-b]pyridazin-7-yl)-4-(isopropylamino)pyridin-3-yl)-1,3,4-thiadiazol-2-yl)-3-azabicyclo[3.2.1]octan-8-yl)-N2-(dimethyl(oxo)-16-sulfanylidene)oxalamide [Example 103]”, in assay [1] (setting [3]), the IC50 was 0.51 nM. Also, in assay [2], the EC50 was 1.4 nM.
Take “N-((1R,5S,8s)-3-(5-(6-(3-cyanopyrrolo[1,2-b]pyridazin-7-yl)-4-(isopropylamino)pyridin-3-yl)-1,3,4-thiadiazol-2-yl)-3-azabicyclo[3.2.1]octan-8-yl)-2-((dimethyl(oxo)-16-sulfanylidene)amino)acetamide [Example 98]”: the IC50 in assay [1] (setting [3]) is 1.13 nM. In addition, the EC50 in assay [2] is 3.2 nM.

The values above are taken from patent publication US11702414B2, “Thiadiazole IRAK4 inhibitors” (Gilead Sciences, Inc., priority 2018, dated 2023).
